Results on 3 molecules are retold here after EP1202967B1, “SULFURIC ACID MONO-[3-({1-[2-(4-FLUORO-PHENYL)-ETHYL]-PIPERIDIN-4-YL}-HYDROXY-METHYL)-2-METHOXY-PHENYL]ESTER” (AVENTIS PHARMACEUTICALS INC., priority 1999, dated 2001).

The target in one data set is T1, human D2L (Homo sapiens, UniProt P14416).
T1 construct: expressed in transfected cells; membranes prepared
Description: Receptor binding assay, inhibition of [3H]-ligand binding to human D2L. As to conditions: [3H]N-methyl spiperone 1 nM, CHO cell membranes, 37°C, 60 min; read-out: D2(Ki µM). As to the method:
(§1) Cells stably expressing the human homologs of the receptors (dopamine D2L, serotonin 5HT2A and 5HT2C, α1A adrenergic; cloned and expressed at Hoechst Marion Roussel; Grandy et al., 1989: Monsma et al., 1993; Schwinn et al., 1995) were grown: cell membranes were prepared, and kept frozen until used (Kongsamut et al., 1996). […] All binding parameters were optimized at Hoechst Marion Roussel; ligand KdS were determined using both saturation analysis (Scatchard) as well as kinetic analysis (association and dissociation rates). Each batch of membrane was validated by checking the ligand Kd, and rank order of potency of selected standard compounds. Assays for the serotonin 5HT2A and dopamine D2L receptors were conducted at 37°C in a Tris buffer containing salts (50 mM Tris Buffer, pH 7.7; 120 mM NaCl; 5 mM KCI; 2 mM CaCl2; 1 mM MgCl2), while the serotonin 5-HT2C and α1A adrenergic receptor assays used a different buffer without salts (50 mM Tris, 4 mM CaCl2 and 1% ascorbate, pH 7.4). […]
(§2) Membranes were rapidly thawed and diluted to an appropriate concentration (between 20 - 150 µg protein/assay point depending on receptor expression level) in Tris buffer and homogenized. […] Microscint scintillation cocktail (40 µl) were added and the filter plates were counted in a Packard Top Count scintillation counter.

Another data set deals with T2, human α1A (Homo sapiens, UniProt P35348).
T2 construct: expressed in transfected cells; membranes prepared
T2 sequence (P35348 1-466): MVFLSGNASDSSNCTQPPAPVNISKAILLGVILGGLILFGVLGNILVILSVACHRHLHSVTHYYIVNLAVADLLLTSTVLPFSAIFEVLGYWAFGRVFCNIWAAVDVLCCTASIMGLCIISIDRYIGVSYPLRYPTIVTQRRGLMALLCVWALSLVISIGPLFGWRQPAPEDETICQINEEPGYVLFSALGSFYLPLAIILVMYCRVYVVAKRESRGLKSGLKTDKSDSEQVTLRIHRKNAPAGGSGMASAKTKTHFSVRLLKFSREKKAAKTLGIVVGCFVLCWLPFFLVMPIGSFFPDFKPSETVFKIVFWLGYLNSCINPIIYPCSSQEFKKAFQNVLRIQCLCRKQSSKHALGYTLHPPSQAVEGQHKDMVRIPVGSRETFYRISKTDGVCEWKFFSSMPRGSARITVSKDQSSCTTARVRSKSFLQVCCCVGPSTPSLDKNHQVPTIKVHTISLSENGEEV
Briefly: Receptor binding assay, inhibition of [3H]-ligand binding to human α1A. The following applies: [3H]prazosin 1 nM, CHO cell membranes, 37°C, 40 min. The protocol: as §1, §2

A further data set addresses T3, human 5-HT2C (Homo sapiens, UniProt P28335).
T3 construct: expressed in transfected cells; membranes prepared
T3 sequence (P28335 33-458): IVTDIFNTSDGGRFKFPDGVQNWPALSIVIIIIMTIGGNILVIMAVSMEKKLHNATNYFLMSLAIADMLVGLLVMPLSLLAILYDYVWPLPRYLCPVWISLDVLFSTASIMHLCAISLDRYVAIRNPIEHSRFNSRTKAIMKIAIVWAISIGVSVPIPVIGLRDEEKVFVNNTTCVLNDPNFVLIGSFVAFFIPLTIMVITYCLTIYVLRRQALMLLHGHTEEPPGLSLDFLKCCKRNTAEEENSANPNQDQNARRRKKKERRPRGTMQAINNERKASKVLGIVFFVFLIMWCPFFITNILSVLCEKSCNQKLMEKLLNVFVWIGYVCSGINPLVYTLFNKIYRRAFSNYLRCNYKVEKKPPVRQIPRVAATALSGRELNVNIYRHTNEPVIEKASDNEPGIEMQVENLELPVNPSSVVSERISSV
Description: Receptor binding assay, inhibition of [3H]-ligand binding to human 5-HT2C. The following applies: [3H]mesulergine 2 nM, CHO cell membranes, 37°C, 40 min. The protocol:
as §1, §2

The nature of data set [1]: Bovine Brain Endothelial Cells (BBMEC) transport study, in vitro BBB permeability. It is filed as in vitro ADME. As to conditions: BBMEC monolayer, mean ± standard deviation. The protocol: The compounds of this invention are capable of crossing the blood-brain barrier (BBB) as shown by their ability to penetrate across a membrane of a monolayer of bovine brain microvessel endothelial cells, an in vitro model for BBB permeability.
The procedure was performed according to: Kenneth L. Audus et al., Brain Microvessel Endothelial Cell Culture System (Chapter 13) pp 239-258. In Models for Assessing Drug Absorption and Metabolism, Ronald T. Borchardt et al. eds., Plenum Press, New York 1996.

The target in a further data set is T4, human 5-HT2A (Homo sapiens, UniProt P28223).
T4 construct: expressed in transfected cells; membranes prepared
T4 sequence (P28223 whole entry): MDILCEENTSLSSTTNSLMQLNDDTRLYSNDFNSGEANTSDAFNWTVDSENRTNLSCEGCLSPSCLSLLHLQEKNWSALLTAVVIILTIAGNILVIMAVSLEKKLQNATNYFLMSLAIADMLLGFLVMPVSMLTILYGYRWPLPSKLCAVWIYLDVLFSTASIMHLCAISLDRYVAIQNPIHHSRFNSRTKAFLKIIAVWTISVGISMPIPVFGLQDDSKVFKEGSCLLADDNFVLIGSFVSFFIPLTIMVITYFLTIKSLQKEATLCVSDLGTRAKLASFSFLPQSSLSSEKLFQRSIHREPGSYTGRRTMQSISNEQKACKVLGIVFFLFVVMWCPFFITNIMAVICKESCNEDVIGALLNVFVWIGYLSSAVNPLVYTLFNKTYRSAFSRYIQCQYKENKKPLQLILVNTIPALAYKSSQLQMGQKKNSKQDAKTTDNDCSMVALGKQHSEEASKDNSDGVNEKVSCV
Description: Receptor binding assay, inhibition of [3H]-ligand binding to human 5-HT2A. The protocol:
Cells stably expressing the human homologs of the receptors (dopamine D2L, serotonin 5HT2A and 5HT2C, α1A adrenergic; cloned and expressed at Hoechst Marion Roussel; Grandy et al., 1989: Monsma et al., 1993; Schwinn et al., 1995) were grown: cell membranes were prepared, and kept frozen until used (Kongsamut et al., 1996). The relevance of these binding sites has been extensively discussed in the literature (see for example: Carlsson & Carlsson. 1990; Creese et al., 1976; Gorman & Vargas, 1995; Meltzer et al., 1989). All binding parameters were optimized at Hoechst Marion Roussel; ligand KdS were determined using both saturation analysis (Scatchard) as well as kinetic analysis (association and dissociation rates). Each batch of membrane was validated by checking the ligand Kd, and rank order of potency of selected standard compounds. […]
Membranes were rapidly thawed and diluted to an appropriate concentration (between 20 - 150 µg protein/assay point depending on receptor expression level) in Tris buffer and homogenized. […] Microscint scintillation cocktail (40 µl) were added and the filter plates were counted in a Packard Top Count scintillation counter. Data were analyzed to determine Ki's for compounds of interest (Prusoff & Cheng, […]).Table: Receptor Binding Parameters. […]

The structures appear in SMILES notation. Some results are limits rather than exact numbers.

One may read the Ki as the dissociation constant of the complex between target and ligand, obtained from inhibition or displacement. By Papp is commonly meant a coefficient for how fast a substance crosses the barrier. The low end stands for slow passage, the high end for fast passage. What is called Kd is the free concentration of one partner at which half of the binding sites on the other are occupied at equilibrium, for simple one-to-one binding. A higher Kd goes with lower affinity.

T1 sequence (P14416 whole entry): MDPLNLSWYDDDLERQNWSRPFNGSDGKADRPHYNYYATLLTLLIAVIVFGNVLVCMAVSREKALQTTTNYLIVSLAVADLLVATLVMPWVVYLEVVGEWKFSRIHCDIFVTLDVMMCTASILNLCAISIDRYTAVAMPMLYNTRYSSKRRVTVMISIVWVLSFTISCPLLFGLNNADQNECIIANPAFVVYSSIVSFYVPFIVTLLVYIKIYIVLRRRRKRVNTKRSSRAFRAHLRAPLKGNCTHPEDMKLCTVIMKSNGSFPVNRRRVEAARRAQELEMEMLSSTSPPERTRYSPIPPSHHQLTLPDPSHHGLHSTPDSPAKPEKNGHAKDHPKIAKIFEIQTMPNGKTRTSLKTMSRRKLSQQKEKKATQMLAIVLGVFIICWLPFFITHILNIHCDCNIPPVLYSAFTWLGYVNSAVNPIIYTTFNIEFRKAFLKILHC

Regarding `COc1c(OS(=O)(=O)O)cccc1C(O)C1CCN(CCc2ccc(F)cc2)CC1` (single isomer, unassigned) [Example 1H, Sulfuric acid mono-(+)-(3-(-{1-[2-(4-fluoro-phenyl)-ethyl]-piperidin-d-yl}-hydroxy-methyl)-2-methoxy-phenyl] ester], the Ki on human D2L is over 1 µM; at human α1A it was over 1 µM; on human 5-HT2C, over 1 µM; on human 5-HT2A ([3H]N-methyl spiperone 1.5 nM, BHK cell membranes, 37°C, 40 min) it was 0.16 µM. Moreover, the Papp at 5.4 µM in data set [1] was 41.4 ± 16.4 ×10⁻⁶ cm/s. Further, the Papp at 16 µM in data set [1] amounted to 52.5 ± 9.5 ×10⁻⁶ cm/s.

`OC[C@@H](O)[C@@H](O)[C@H](O)[C@H](O)CO` [Mannitol, reference compound]: in data set [1], the Papp at 5.4 µM came to 27.6 ± 2.3 ×10⁻⁶ cm/s and the Papp at 16 µM was determined as 27.6 ± 2.3 ×10⁻⁶ cm/s.

At human 5-HT2A (radioligand Kd at human 5-HT2A, BHK, saturation (Scatchard) and kinetic analysis), `CN1CN(c2ccccc2)C2(CCN(CCCC(=O)c3ccc(F)cc3)CC2)C1=O` [[^3H]N-methyl spiperone, reference compound] gave a Kd of 0.92 nM.
